In brackets after ≈: the same amount, converted by molar mass.
Columns and labels:
[1] = tested on: Candida glabrata (ATCC Accession No. 48435); test: MIC80 fungal growth inhibition, C. glabrata ATCC 48435; assay type: cell-based; settings: for MIC80 C. glabrata ATCC No. 48435 / MIC80: Azole-resistant, >80% growth inhibition, visual scoring; for MIC80: Nakaseomyces glabratus, ATCC48435, read-out: MIC80 C. glabrata ATCC No. 48435
Method: (§1) The antifungal activity of the pyridinohydrazide and hydrazomethylpyridine derivatives described in the s were evaluated in vitro using Candida albicans (ATCC Accession No. 10231) and Candida glabrata (ATCC Accession No. 48435). In addition, the compounds were evaluated for activity against two previously-described clinical isolates of C. albicans known to have developed azole-resistance. These isolates were obtained over a two year period from a single AIDS patient and the development of the azole-resistance mechanisms have been extensively characterized (White T C. Antimicrob. Agents Chemother. (1997) 41: 1482-1487). MIC assays were performed on the clinical isolates 1 and 17 (annotated TW1 and TW17, respectively), where isolate 1 was used as an azole-susceptible control and isolate 17 was considered azole-resistant. All assays were done in accordance with NCCLS reference documents (Clinical Laboratory and Standards Institute. Reference method for Broth Dilution Antifungal Susceptibility Testing of Yeasts: Approved Standard. M27-A3 2010; 28). The results of these screenings are summarized in Tables 1-9 (Examples 20-27) as the minimum concentrations that inhibited more than 80% of fungal growth (MIC80) as compared to positive controls containing 1% DMSO. Assays were performed in HEPES-buffered RPMI-1640 media. All MIC screens used a visual scoring method as opposed to spectroscopic analysis, due to the altered absorbance spectra of many of the compounds.

[2] = tested on: Candida albicans (ATCC Accession No. 10231); test: MIC80 fungal growth inhibition, C. albicans ATCC 10231; assay type: cell-based; settings: Azole-susceptible, >80% growth inhibition, visual scoring; for MIC80: Candida albicans, ATCC10231, read-out: MIC80 C. albicans ATCC No. 10231
Method: as §1

[3] = tested on: C. albicans clinical isolate 17 (TW17); test: MIC80 fungal growth inhibition, clinical isolate TW17; assay type: cell-based, Candida albicans; settings: Azole-resistant, >80% growth inhibition, visual scoring; for MIC80: Candida albicans, read-out: MIC80 TW17
Method: as §1

[4] = tested on: C. albicans clinical isolate 1 (TW1); test: MIC80 fungal growth inhibition, clinical isolate TW1; assay type: cell-based, Candida albicans; settings: Azole-susceptible, >80% growth inhibition, visual scoring; for MIC80: Candida albicans, read-out: MIC80 TW1
Method: as §1

Row | SMILES | MIC80 C. glabrata ATCC No. 48435 [1] [µg/mL] | MIC80 C. albicans ATCC No. 10231 [2] [µg/mL] | MIC80 TW17 [3] [µg/mL] | MIC80 TW1 [4] [µg/mL] | MIC80 [1] [µg/mL] | MIC80 [2] [µg/mL] | MIC80 [3] [µg/mL] | MIC80 [4] [µg/mL] | potency against Candida glabrata (in words) [1]
1 | O=C(NN=Cc1cc(Br)ccc1O)c1ccncc1 [AR17] | 64 (≈ 200 µM) | 16 (≈ 50 µM) | 125 (≈ 390 µM) | 16 (≈ 50 µM) | – | – | – | – | –
2 | Cc1ccc(O)c(/C=N/NC(=O)c2cccnc2O)c1 [AR20] | – | – | – | – | 2 (≈ 7.37 µM) | – | – | – | –
3 | O=C(NN=Cc1cc(Br)ccc1O)c1cccnc1O [AR22] | 0.5 (≈ 1.49 µM) | – | – | – | – | – | – | – | one of the most potent compounds
4 | O=C(NN=Cc1ccccc1O)c1ccc[n+]([O-])c1 [AR23] | 16 (≈ 62.2 µM) | 31 (≈ 121 µM) | 31 (≈ 121 µM) | 31 (≈ 121 µM) | – | – | – | – | –
5 | Cc1ccc(O)c(C=NNC(=O)c2ccc[n+]([O-])c2)c1 [AR24] | 31 (≈ 114 µM) | 16 (≈ 59 µM) | 16 (≈ 59 µM) | 16 (≈ 59 µM) | – | – | – | – | –
6 | COc1ccc(O)c(/C=N/NC(=O)c2ccc[n+]([O-])c2)c1 [AR25] | – | – | – | – | 4 (≈ 13.9 µM) | 16 (≈ 55.7 µM) | 31 (≈ 108 µM) | 62 (≈ 216 µM) | –
7 | O=C(N/N=C/c1cc(Cl)ccc1O)c1ccc[n+]([O-])c1 [AR26] | – | – | – | – | 4 (≈ 13.7 µM) | 16 (≈ 54.9 µM) | 31 (≈ 106 µM) | 31 (≈ 106 µM) | –
8 | O=C(NN=Cc1ccccn1)c1ccccc1 [AR31] | 62 (≈ 275 µM) | 62 (≈ 275 µM) | 62 (≈ 275 µM) | 31 (≈ 138 µM) | – | – | – | – | –

Now from value to molecule, other results behind:

Row | MIC80 C. glabrata ATCC No. 48435 [1] [µg/mL] | MIC80 C. albicans ATCC No. 10231 [2] [µg/mL] | MIC80 TW17 [3] [µg/mL] | MIC80 TW1 [4] [µg/mL] | MIC80 [1] [µg/mL] | MIC80 [2] [µg/mL] | MIC80 [3] [µg/mL] | MIC80 [4] [µg/mL] | SMILES | potency against Candida glabrata (in words) [1]
9 | 4 (≈ 16.6 µM) | 31 (≈ 128 µM) | 62 (≈ 257 µM) | 31 (≈ 128 µM) | – | – | – | – | O=C(NN=Cc1ccccn1)c1ccccc1O [AR32] | –
10 | 125 (≈ 553 µM) | 125 (≈ 553 µM) | 62 (≈ 274 µM) | 62 (≈ 274 µM) | – | – | – | – | O=C(NN=Cc1ccccn1)c1cccnc1 [AR35] | –
11 | 125 (≈ 553 µM) | 125 (≈ 553 µM) | 125 (≈ 553 µM) | 62 (≈ 274 µM) | – | – | – | – | O=C(NN=Cc1ccccn1)c1ccncc1 [AR36] | –
12 | 125 (≈ 516 µM) | 125 (≈ 516 µM) | 125 (≈ 516 µM) | 62 (≈ 256 µM) | – | – | – | – | O=C(NN=Cc1ccccn1)c1ccc[n+]([O-])c1 [AR38] | –

Reference: US20180072675A1, “ANTIMICROBIAL PYRIDINOHYDRAZIDE AND HYDRAZOMETHYLPYRIDINE-BASED AGENTS” (Board of Supervisors of Louisiana State University and …, priority 2015, published 2018)
